# pIC50: −log10 of the molar value. Where a SMILES comes first, the peptide text is derived from it. Bridges are numbered along the chain shown (N, C = ends).
# Columns and labels:
# [1] = test system: Ito potassium channels; assay: voltage-clamp, Ito potassium currents in rat DRG neurons; type: cell-based
# Procedure: An EPC-10 patch-clamp amplifier (HEKA, Germany) was employed to record the potassium currents at the configuration of whole-cell patch-clamp under an ambient temperature of 22-25°C. The resistance was 2.0-3.0 MΩ when the recording pipette contained a full volume of internal solution (supplemented with 140 mM KCl, 10 mM HEPES, 2.5 mM MgCl2, 5 mM ATP and 11 mM EGTA). KOH was utilized to adjust the pH to 7.2, while sucrose was employed to adjust the osmolarity to 310 mOsm/L. The culture medium was replaced with an external solution containing 150 mM NaCl, 2.5 mM CaCl2, 10 mM HEPES, 2 mM MgCl2, 5 mM KCl, and 10 mM D-glucose. Similarly, sucrose and NaOH were applied to adjust the osmolarity to 330 mOsm/L and pH to 7.4. […] The series resistance was maintained at about 5 MΩ, with 65-70% compensation. Finally, the leakage currents and linear capacitance were subtracted digitally according to the P/4 protocol. […]
# Firstly, the effects of JZTX-X on the isoforms of potassium channels (including Kv1.1-1.3, Kv2.1, as well as Kv4.2-4.3) contained within the X. laevis oocytes were investigated through the microelectrode voltage-clamp approach. […] We also determined the effects of JZTX-X on Ito potassium channels in rat DRG neurons; those current amplitudes were inhibited by 54.4±6.8% when 500 nM JZTX-X was applied (Fig. 3K, n = 5).
# [2] = molecular target: T1, Kv4.2 (Rattus norvegicus, UniProt Q63881); assay: paired-pulse protocol, recovery from inactivation of Kv4.2; type: cell-based; conditions: n = 7
# T1 construct: expressed in transfected cells; host or cells: HEK293t
# T1 sequence (Q63881 1-630): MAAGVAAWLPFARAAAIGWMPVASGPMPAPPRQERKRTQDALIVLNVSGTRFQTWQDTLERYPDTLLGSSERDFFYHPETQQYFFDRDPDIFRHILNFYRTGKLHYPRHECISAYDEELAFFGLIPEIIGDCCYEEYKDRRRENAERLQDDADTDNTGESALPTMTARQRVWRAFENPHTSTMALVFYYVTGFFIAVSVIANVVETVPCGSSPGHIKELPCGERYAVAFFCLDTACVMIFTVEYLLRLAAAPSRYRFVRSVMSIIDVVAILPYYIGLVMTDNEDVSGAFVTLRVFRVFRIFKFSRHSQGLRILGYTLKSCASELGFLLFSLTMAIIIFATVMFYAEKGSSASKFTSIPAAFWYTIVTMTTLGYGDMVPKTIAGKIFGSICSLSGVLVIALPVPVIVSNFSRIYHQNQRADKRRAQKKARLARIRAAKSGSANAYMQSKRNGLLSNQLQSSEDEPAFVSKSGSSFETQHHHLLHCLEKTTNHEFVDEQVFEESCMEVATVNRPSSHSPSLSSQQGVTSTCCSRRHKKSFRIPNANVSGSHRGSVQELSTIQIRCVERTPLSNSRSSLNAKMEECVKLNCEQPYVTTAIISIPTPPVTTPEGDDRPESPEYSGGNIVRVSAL
# Description: Rat cDNA genes encoding Kv4.2 (Accession: NM_031730.2) and Kv4.3 (Accession: AB003587.1) were subcloned to vector pcDNA3.1. In addition, human cDNA genes encoding Nav1.7 (Accession: DQ857292.1) and Nav1.5 (Accession: AB158469.2) were subcloned to vectors pcDNA3.1-mod and pcDNA3.1, separately. Then, Kv4.2, Kv4.3, Nav1.5 and Nav1.7 constructs were transiently transfected into the human embryonic kidney 293t (HEK293t) cells using lipofectamine 2000 (Invitrogen, USA) in accordance with manufacturer protocols. Thereafter, HEK293 cells were inoculated within Dulbecco’s modified Eagle’s medium (DMEM) containing 10% fetal bovine serum (FBS) at 5% CO2 and 37°C. The Kv4.3 channel and the Kv4.2 counterpart were then transfected in the absence of β subunit. Subsequently, cells were incubated with a DNA-lipofectamine mixture (one reporter plasmid for green fluorescence protein and channel constructs) for 4-6 h, and were washed with the fresh medium. […]
# Figure 7. […] Thereafter, those elicited peak currents in test pulses were determined and standardized based on the peak currents for conditioning pulses within the identical cell. […] ( B ) The standardized recovery data were expressed as mean ± S.E. (n = 7), plotted as a function of inter-pulse interval, and fitted to one singular exponential function.
smiles,measurement,setting,value
"CC(C)C[C@@H]1NC(=O)[C@H](CCCCN)NC(=O)[C@H](Cc2ccc(O)cc2)NC(=O)[C@@H]2CSSC[C@@H]3NC(=O)[C@H](Cc4ccc(O)cc4)NC(=O)[C@H](Cc4ccccc4)NC(=O)CNC(=O)[C@H](C)NC(=O)[C@H](CSSC[C@H](NC(=O)[C@@H](N)CC(C)C)C(=O)N[C@@H](CO)C(=O)N[C@@H](CCCNC(=N)N)C(=O)N[C@@H](CCC(=O)O)C(=O)NCC(=O)N[C@@H](CCC(=O)O)C(=O)N[C@@H](Cc4ccccc4)C(=O)N2)NC(=O)[C@H](CSSC[C@@H](C(=O)N[C@@H](Cc2ccc(O)cc2)C(=O)N[C@@H](CCCNC(=N)N)C(=O)N[C@@H](CC(N)=O)C(=O)O)NC(=O)[C@H](Cc2c[nH]cn2)NC(=O)[C@H](CC(C)C)NC(=O)[C@H](C(C)C)NC(=O)[C@H](Cc2ccccc2)NC(=O)[C@H](C)NC(=O)[C@H](CCCCN)NC3=O)NC(=O)[C@H](CCCCN)NC(=O)[C@H](CCCNC(=N)N)NC1=O [JZTX-X, Jingzhaotoxin-X] (H-LCSREGEFCYKLRKCCAGFYCKAFVLHCYRN-OH; disulfide 2-16, 9-21, 15-28; N-terminus assumed)",inhibition of Ito current,"[1]; 500 nM, n = 5",54.4±6.8%
same,pIC50,"[1]; Hill equation fit, n = 6",6.41
same,effect on recovery of Kv4.2,[2]; paired-pulse protocol,remarkably accelerated the recovery of Kv4.2 channel inhibition
same,"time constant of recovery from inactivation, Kv4.2","[2]; toxin concentration not given, control 195.3 ± 31.6 ms, P<0.05, single exponential",130.2 ± 25.3 ms
